Experimental data as given in paper PMC3576842 (Cancer discovery, 2012).
pIC50: −log10 of the molar value. “Also recorded” adds a separate entry of the source. Values belong to the molecule of their own block, whether it stands above or below them.

Columns and labels:
[1] = human, in vivo; cited from earlier work
[2] = tested on: PC-9 cells (EGFR del E746_A750); assay: EGFR signaling and apoptosis immunoblotting in PC-9 cells; type: cell-based, human
[3] = tested on: NCI-H1975 cells (EGFR L858R/T790M); assay: Cell viability assay; type: cell-based, human; conditions: read-out: IC50 cell viability; 72 hr; L858R/T790M mutant line
[4] = tested on: HCC827 cells (EGFR del E746_A750); assay: EGFR signaling and apoptosis immunoblotting in HCC827 cells; type: cell-based, human
[5] = tested on: HCC827 cells; assay: High-throughput tumor cell line screening / cell viability assay; type: cell-based, human
[6] = tested on: EGFR delE746_A750 mutant lines (PC-9, HCC827, HCC4006); assay: Cell viability assay; type: cell-based, human; conditions: read-out: IC50 cell viability; 72 hr; 3 NSCLC lines with EGFR delE746_A750
[7] = tested on: PC-9 cells; assay: High-throughput tumor cell line screening / cell viability assay; type: cell-based, human; conditions: for effect on growth: even at high concentrations
[8] = target: wild-type EGFR in NR6 cells (Homo sapiens, UniProt P00533); assay: Ligand-induced; type: cell-based; conditions: for inhibition of ligand-induced EGFR phosphorylation: NR6 wild-type EGFR, TGF-α
[9] = PKC412 225 mg/d for 28 days, solid tumor tissues; cited from earlier work
[10] = target: EGFR del E746_A750/T790M in erlotinib-resistant PC-9 cells (Homo sapiens, UniProt P00533, DEL746-750/T790M); assay: Drug wash-out assay; type: cell-based
[11] = target: EGFR L858R/T790M in NR6 cells (Homo sapiens, UniProt P00533, L858R/T790M); assay: Ligand-induced; type: cell-based; conditions: 16 hr, TGF-α 15 min
[12] = target: recombinant EGFR L858R/T790M (Homo sapiens, UniProt P00533, L858R/T790M); assay: EGFR autophosphorylation assay; type: biochemical; conditions: ATP, 15 min
[13] = tested on: NCI-H1975 tumor xenografts (EGFR L858R/T790M); assay: NCI-H1975 xenograft study; type: in vivo, Balb/c nude mice
[14] = in vivo; conditions: athymic nude, mouse, plasma, oral, 100 mg/kg
[15] = target: recombinant EGFR T790M (Homo sapiens, UniProt P00533, T790M); assay: EGFR autophosphorylation assay; type: biochemical; conditions: for inhibition of EGFR T790M autophosphorylation: ATP, 15 min; for concentrations as low as which inhibit EGFR T790M autophosphorylation: EGFR T790M mutants
[16] = tested on: PC-9/ER xenografts (EGFR del E746_A750/T790M); assay: PC-9/ER xenograft study; conditions: for tumor growth: daily oral gavage for 21 days, PKC412 100 mg/kg, WZ4002 25 mg/kg
[17] = tested on: lung adenocarcinomas driven by EGFR L858R/T790M; assay: Genetically engineered NSCLC model; type: in vivo, mice
[18] = target: EGFR del E746_A750/T790M in NR6 cells (Homo sapiens, UniProt P00533, DEL746-750/T790M); assay: Ligand-induced; type: cell-based; conditions: 16 hr, TGF-α 15 min
[19] = target: recombinant EGFR wild-type (Homo sapiens, UniProt P00533); assay: EGFR autophosphorylation assay; type: biochemical
[20] = tested on: PC-9/ER cells; assay: Anti-proliferative response of erlotinib-resistant PC-9 clone; conditions: 10 μM erlotinib
[21] = 1 μM, 72 hr, strong sensitivity defined as greater than 70% growth suppression

SMILES: CO[C@@H]1[C@H](N(C)C(=O)c2ccccc2)C[C@H]2O[C@]1(C)n1c3ccccc3c3c4c(c5c6ccccc6n2c5c31)C(=O)N[C@H]4O [CGP52421]
plasma concentration of metabolite [1]: 20000 to 25000 nM

SMILES: Cn1c2ccccc2c2c3c(c4c5ccccc5n(CCC#N)c4c21)CNC3=O [Gö6976]
apoptosis (PARP cleavage) ([2]; PC-9): promotes apoptosis
suppression of EGFR signaling ([2]; PC-9, 1 μM): suppressed EGFR signaling as efficiently as erlotinib
pIC50 [3]: ~6.10
apoptosis (PARP cleavage) ([4]; HCC827): promotes apoptosis
suppression of EGFR signaling ([4]; HCC827, 1 μM): suppressed EGFR signaling as efficiently as erlotinib
growth inhibition in cell line screen [5, 21]: strongly growth inhibited
pIC50 [6]: 6.70 to 7.00
growth inhibition in cell line screen [7, 21]: strongly growth inhibited

inhibition of ligand-induced EGFR phosphorylation [8]: not significantly inhibited
less activity against wild-type EGFR in drug-treated cells than irreversible EGFR inhibitors ([8]; PKC412 versus irreversible EGFR inhibitors): 500 fold
nature of inhibition (recovery of pEGFR after wash-out) [10]: reversible
inhibition of ligand-induced EGFR phosphorylation [11]: similarly potent ability to inhibit
inhibition of EGFR L858R/T790M autophosphorylation [12]: potently inhibit
Cmax [14]: 2910 nM
concentration at 24 h [14]: 659 nM
inhibition of EGFR T790M autophosphorylation [15]: potently inhibit
concentrations as low as which inhibit EGFR T790M autophosphorylation [15]: 3 to 30 nM
weight loss ([17]; 4 weeks of PKC412 treatment): No significant weight loss
SMILES: CO[C@@H]1[C@H](N(C)C(=O)c2ccccc2)C[C@H]2O[C@]1(C)n1c3ccccc3c3c4c(c5c6ccccc6n2c5c31)C(=O)NC4 [PKC412]
tissue concentration (median) [9]: 593 nM
EGFR signaling in tumors after the last dosing ([13]; 4 hours after the last dosing): effective suppression of EGFR signaling
suppression of phospho-EGFR and phospho-AKT in tumors ([13]; daily for 3 days, PKC412 100 or 200 mg/kg, gefitinib 100 mg/kg): Significant suppression
body weight loss ([13]; daily oral 100 mg/kg): no significant body weight loss
tumor growth suppression compared to control-treated animals ([13]; day 12, daily oral PKC412 100 mg/kg): 50%
EGFR signaling in tumors after the last dosing ([16]; Day 21, 4 hours after the last dosing): effective suppression of EGFR signaling
body weight loss ([16]; daily oral 100 mg/kg, 21 days): no significant body weight loss
tumor growth [16]: tumors began to regress; also recorded: significant tumor regression
tumor growth ([17]; 4 weeks of treatment): growth inhibited for the first two weeks of treatment
phosphorylation of EGFR L858R/T790M in tumors ([17]; treated for 5 days): significant decrease in phosphorylation

inhibition of ligand-induced EGFR phosphorylation [8]: modestly affected
inhibition of ligand-induced EGFR phosphorylation [18]: most potent inhibitor
inhibition of ligand-induced EGFR phosphorylation [11]: similarly potent ability to inhibit
inhibition of EGFR L858R/T790M autophosphorylation [12]: potent suppression
inhibition of EGFR T790M autophosphorylation [15]: potent suppression
concentrations as low as which inhibit EGFR T790M autophosphorylation [15]: 10 nM
inhibition of wild-type EGFR autophosphorylation ([19]; ATP, 15 min): ineffective
concentrations with detectable inhibition of wild-type EGFR ([19]; autophosphorylation): above 1 micromolar
SMILES: C=CC(=O)Nc1cccc(Oc2nc(Nc3ccc(N4CCN(C)CC4)cc3OC)ncc2Cl)c1 [WZ4002]
tumor growth [16]: efficiently inhibited

SMILES: CN(C)CCCn1cc(C2=C(c3c[nH]c4ccccc34)C(=O)NC2=O)c2ccccc21 [bis-indolylmaleimide I]
effect on growth ([5]; even at high concentrations): failed to detectably affect growth
effect on growth [7]: failed to detectably affect growth

SMILES: C#Cc1cccc(Nc2ncnc3cc(OCCOC)c(OCCOC)cc23)c1 [erlotinib]
anti-proliferative response [20]: no anti-proliferative response

SMILES: CN1CCN(c2nc(C3=C(c4c[nH]c5ccccc45)C(=O)NC3=O)c3ccccc3n2)CC1 [sotrastaurin]
effect on growth [7]: failed to detectably affect growth
